# Assay results: US20100048516A1, “PENETRATION ENHANCER FOR FUNGICIDES” (Bayer CropScience AG, priority 2006, published 2010)
# “Also recorded” adds a separate entry of the source.
# Columns and labels:
# [1] = Penetration test: penetration of radioactively marked active substance through isolated apple leaf cuticles in diffusion cells; conditions: for % Penetration (after hours): acetone/tap water 20/80% by weight, 20-25° C., rel. humidity 56-60%, mean of 4-8 repetitions
# Procedure: In this test, the penetration of active substances through enzymatically isolated cuticles of apple tree leaves was measured. The cuticles represent all green plant parts, such as leaf blade, petiole, stalk, trunk, hypocotyl and many fruits.
# Leaves which were cut off in the stage of full development of apple trees of the Golden Delicious variety were used. The isolation of the cuticles was effected in a manner such that • first, leaf disks marked on the underside with dye and punched out were filled by means of vacuum infiltration with a pectinase solution (0.2 to 2% strength by weight) buffered to a pH between 3 and 4, • sodium azide was then added and • the leaf disks thus treated were allowed to stand until disintegration of the original leaf structure and detachment of the noncellular cuticle.
# Thereafter, only those cuticles of the upper sides of the leaves which were free of stomata and hairs were further used. They were washed several times alternately with water and a buffer solution at pH 7. The cleaned cuticles obtained were finally drawn onto small Teflon plates and smoothed and dried with a gentle air jet.
# In the next step, the cuticle membranes thus obtained were placed in stainless steel diffusion cells (=transport chambers) for membrane transport investigations. For this purpose, the cuticles were placed by means of forceps centrally on the silicone grease-coated edges of the diffusion cells and closed with a likewise greased ring. The arrangement was chosen so that the morphological outside of the cuticles faced outward, i.e. toward the air, while the original inside faced the interior of the diffusion cell. The diffusion cells were filled with water or with a mixture of water and solvent.
# For determining the penetration, in each case 10 μl of a spray liquor of the composition mentioned in the examples were applied to the outside of a cuticle.
# In each case the solvents listed below in the table (tap water or a mixture with 20% by weight of acetone/80% by weight of tap water) were used in the spray liquors.
# After the application of the spray liquors, in each case the solvent was allowed to evaporate, and in each case the chambers were then turned around and placed in thermostated trays, air having a defined temperature and atmospheric humidity being blown onto the outside of the cuticle. The incipient penetration therefore took place at a relative humidity of 60% and a set temperature of 20 or 25° C. The active substance penetration was measured with radioactively marked active substance.
# [2] = test system: crop plant; experiment: Crop plant tolerance tests of TBEP versus other alkyl ester additives; format: in vivo; conditions: compared with other alkyl ester additives
# [3] = after 3 hours, 0.2 g/l active substance without or with 0.5 g/l TBEP, apple leaf cuticles
# [4] = after 24 hours, 0.2 g/l active substance without or with 0.5 g/l TBEP, apple leaf cuticles
SMILES,"% Penetration (after hours) [1, 3]","% Penetration (after hours) [1, 4] [%]",further results
"CCCCOCCOP(=O)(OCCOCCCC)OCCOCCCC [TBEP, tributoxyethyl phosphate]",,,"Effect of the penetration enhancer on uptake of active substances (in words) ([1]; summary of tables 1 and 2, apple leaf cuticles): considerable increase in uptake of the active substances; also recorded: advantageously higher increase in uptake of active substances than the penetration enhancers of the prior art; Crop plant tolerance (in words) [2]: more tolerant than other alkyl ester additives"
"COc1ccccc1C(=O)NS(=O)(=O)c1ccc(C(=O)NC2CC2)cc1 [cyprosulfamide, 4-cyclopropylaminocarbonyl-N-(2-methoxybenzoyl)benzenesulfonamide]",0.1 (3) %,0.3,
"CCOC(=O)C(C)Oc1ccc(Oc2nc3ccc(Cl)cc3o2)cc1 (stereo not drawn) [fenoxaprop-P-ethyl, ethyl 2-(4-(6-chlorobenzoxazol-2-yloxy)phenoxy)propionate]",,,"% Penetration (after 24 hours) ([1]; apple tree, 24 h, 0.3 g/l): 0.3%; % Penetration (after 48 hours) ([1]; apple tree, 48 h, 0.3 g/l): 0.9%"
"CCOC(=O)C1=NOC(c2ccccc2)(c2ccccc2)C1 [isoxadifen-ethyl, ethyl 5,5-diphenyl-2-isoxazolinecarboxylate]",1.7 (3) %,17.4,
"CCOC(=O)C1=NN(c2ccc(Cl)cc2Cl)C(C)(C(=O)OCC)C1 (stereo not drawn) [mefenpyr-diethyl, ethyl 1-(2,4-dichlorophenyl)-5-(ethoxycarbonyl)-5-methyl-2-pyrazoline-3-carboxylate]",0.4 (3) %,4.9,
O=C(Nc1ccccc1)Nc1cnns1 [thidiazuron],,,"% Penetration (after hours) ([1]; after 6 hours, 0.2 g/l thidiazuron without or with 3 g/l TBEP, apple leaf cuticles): 0.6 (6) %; % Penetration (after hours) ([1]; after 24 hours, 0.2 g/l thidiazuron without or with 3 g/l TBEP, apple leaf cuticles): 0.9%"
